Experimental data from patent US20240239788A1, “SMALL MOLECULE INHIBITORS OF KRAS G12D MUTANT” (Merck Sharp & Dohme LLC, priority 2021, published 2024).
Counter-ions that a name gives are not always drawn. Like-named read-outs stand apart in the source and are kept apart here.

Key:
[1] = test system: AsPC-1 cells containing homozygous KRAS-G12D activating mutation; assay: Cellular phospho-ERK assay with 10% FBS (Examples 107a-256); format: cell-based
Method: 5% CO2 for 2 hours. […] Assay plates were read on a EnVision Multimode Plate Reader (PerkinElmer) and the ratio of p-Erk vs total Erk in each well was used as the final readout.

[2] = biological target: KRAS protein containing G12D mutation (Homo sapiens (Human), UniProt P01116, G12D); assay: SOS-catalyzed nucleotide exchange assay (GNE), TR-FRET; format: biochemical; conditions: biotinylated KRAS G12D, SOS and GTP, 60-minute incubation
Chain of KRAS protein containing G12D mutation (P01116 other isoform, or with tags, fused parts or gaps G12D (already in the parent)): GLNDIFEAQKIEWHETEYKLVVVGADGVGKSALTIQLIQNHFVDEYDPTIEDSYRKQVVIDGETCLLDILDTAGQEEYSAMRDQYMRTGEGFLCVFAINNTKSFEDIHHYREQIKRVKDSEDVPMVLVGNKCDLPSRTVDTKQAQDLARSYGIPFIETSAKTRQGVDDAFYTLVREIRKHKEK
Method: Compounds are added to this complex and then after a 60-minute incubation time the mixture is treated with SOS and unlabeled GTP. Small molecule inhibitors stabilize the Bodipy-GDP complex whereas the untreated protein rapidly exchanges Bodipy-GDP for unlabeled GTP resulting in reduced TR-FRET signal.
This solution is referred to as biotinylated KRAS G12D stock solution.

[3] = read-out: IC50 (nM) pERK (cell with FBS 10%), AsPC-1 cells, 10% fetal bovine serum, 2 hours, ratio of p-Erk vs total Erk
[4] = Homo sapiens, ASPC1, 2 h, read-out: IC50 (nM) pERK (cell with FBS 10%), AsPC-1 cells, 10% fetal bovine serum, 2 hours, ratio of p-Erk vs total Erk

| IC50 [1, 3] | Structure (SMILES) | IC50 [2] | IC50 [1, 4] |
| --- | --- | --- | --- |
|  | C#Cc1cccc2c(F)c(O)cc(-c3c(F)cc4c(N5C[C@H]6CC[C@@](C)(C5)N6)nc(OC[C@@]56CCCN5C[C@H](F)C6)nc4c3F)c12 [202b, 4-(6,8-difluoro-2-(((2R,7aS)-2-fluorotetrahydro-1H-pyrrolizin-7a(5H)-yl)methoxy)-4-((1S,5R)-1-methyl-3,8-diazabicyclo[3.2.1]octan-3-yl)quinazolin-7-yl)-5-ethynyl-1-fluoronaphthalen-2-ol] | 3.94 nM | 302 nM |
|  | C[C@]12CCC(CN(c3nc(OC[C@H]4CC[C@@]5(CO)CCCN45)nc4c(F)c(-c5cc(O)cc6cccc(Cl)c56)c(F)cc34)C1)N2 [243a, 5-chloro-4-(6,8-difluoro-2-(((38,7aS)-7a-(hydroxymethyl)hexahydro-1H-pyrrolizin-3-yl)methoxy)-4-((1S,5R)-1-methyl-3,8-diazabicyclo[3.2.1]octan-3-yl)quinazolin-7-yl)naphthalen-2-ol] | 346 nM | 30000 nM |
| 30000 nM | CN(C)CC1(COc2nc(N3C[C@H]4CC[C@@](C)(C3)N4)c3cc(F)c(-c4cc(O)cc5ccccc45)c(F)c3n2)CC1C(=O)O (stereo partly drawn) [Ex. 107, 2-(((6,8-difluoro-7-(3-hydroxynaphthalen-1-yl)-4-((1S,5R)-1-methyl-3,8-diazabicyclo[3.2.1]octan-3-yl)quinazolin-2-yl)oxy)methyl)-2-((dimethylamino)methyl)cyclopropane-1-carboxylc acid] | 25.4 nM |  |
|  | Cc1cc2[nH]nc(C)c2c(-c2c(F)cc3c(N4C[C@H]5CC[C@@H](C4)N5)nc(OCC4(CN5CCOCC5)CC4)nc3c2F)c1OC(F)F [Ex. 127, 4-((1-(((4-((1R,5S)-3,8-diazabicyclo[3.2.1]octan-3-yl)-7-(5-(difluoromethoxy)-3,6-dimethyl-1H-indazol-4-yl)-6,8-difluoroquinazolin-2-yl)oxy)methyl)cyclopropyl)methyl) morpholine] | 39 nM | 3600 nM |
|  | Nc1cc2cccc(Cl)c2c(-c2c(F)cc3c(N4C[C@H]5CC[C@@H](C4)N5)nc(OC[C@@]45CCCN4C[C@H](F)C5)nc3c2F)n1 [Ex. 132, 1-(4-((1R,5S)-3,8-diazabicyclo[3.2.1]octan-3-yl)-6,8-difluoro-2-(((2R,7aS)-2-fluorotetrahydro-1H-pyrrolizin-7a(5H)-yl)methoxy)quinazolin-7-yl)-8-chloroisoquinolin-3-amine] | 347 nM | 5580 nM |
|  | Nc1cnc(C(F)(F)F)c(-c2c(F)cc3c(N4C[C@H]5CC[C@@H](C4)N5)nc(OC[C@@]45CCCN4C[C@H](F)C5)nc3c2F)n1 [Ex. 134, 6-(4-((1R,5S)-3,8-diazabicyclo[3.2.1]octan-3-yl)-6,8-difluoro-2-(((2R,7aS)-2-fluorotetrahydro-1H-pyrrolizin-7a(5H)-yl)methoxy)quinazolin-7-yl)-5-(trifluoromethyl)pyrazin-2-amine] | 870 nM | 13600 nM |
|  | Cc1nc(N)nc(-c2c(F)cc3c(N4C[C@H]5CC[C@@H](C4)N5)nc(OC[C@@]45CCCN4C[C@H](F)C5)nc3c2F)c1C(F)(F)F [Ex. 135, 4-(4-((1R,5S)-3,8-diazabicyclo[3.2.1]octan-3-yl)-6,8-difluoro-2-(((2R,7aS)-2-fluorotetrahydro-1H-pyrrolizin-7a(5H)-yl)methoxy)quinazolin-7-yl)-6-methyl-5-(trifluoromethyl)pyrimidin-2-amine] | 54.6 nM | 469 nM |
| 645 nM | CN(C)C[C@@]1(COc2nc(N3C[C@H]4CC[C@@](C)(C3)N4)c3cc(C#N)c(-c4cc(O)cc5ccccc45)c(F)c3n2)CC1(F)F [Ex. 136a, 2-(((R)-1-((dimethylamino)methyl)-2,2-difluorocyclopropyl)methoxy)-8-fluoro-7-(3-hydroxynaphthalen-1-yl)-4-((1S,5R)-1-methyl-3,8-diazabicyclo[3.2.]octan-3-yl)quinazoline-6-carbonitrile] | 4.93 nM |  |
|  | Cc1cc2[nH]ncc2c(-c2c(F)cc3c(N4CC5CCC(C4)N5)nc(OC[C@@]45CCCN4C[C@H](F)C5)nc3c2F)c1C(F)(F)F [Ex. 140, 4-((1R,5S)-3,8-diazabicyclo[3.2.1]octan-3-yl)-6,8-difluoro-2-(((2R,7aS)-2-fluorotetrahydro-1H-pyrrolizin-7a(5H)-yl)meth-oxy)-7-(6-methyl-5-(trifluoromethyl)-1H-indazol-4-yl)quin-azoline, TFA] | 3.88 nM | 113 nM |
|  | CCc1cccc2cccc(-c3c(F)cc4c(N5C[C@H]6CC[C@@](C)(C5)N6)nc(OC[C@@]56CCCN5C[C@H](F)C6)nc4c3F)c12 [Ex. 141, 7-(8-ethylnaphthalen-1-yl)-6,8-difluoro-2-(((2R,7aS)-2-fluorotetrahydro-1H-pyrrolizin-7a(5H)-yl)methoxy)-4-((1S,5R)-1-methyl-3,8-diazabicyclo[3.2.1]octan-3-yl)-quinazoline, TFA] | 139 nM | 16400 nM |
|  | C#Cc1csc2ccnc(-c3c(F)cc4c(N5C[C@H]6CC[C@@H](C5)N6)nc(OC[C@@]56CCCN5C[C@H](F)C6)nc4c3F)c12 [Ex. 152, 4-(4-((1R,5S)-3,8-diazabicyclo[3.2.1]octan-3-yl)-6,8-difluoro-2-(((2R,7aS)-2-fluorotetrahydro-1H-pyrrolizin-7a(5H)-yl)-methoxy)quinazolin-7-yl)-3-ethynylthieno[3,2-c]pyridine] | 848 nM | 5190 nM |
|  | C[C@]12CC[C@H](CN(c3nc(OC[C@@]45CCCN4C[C@H](F)C5)nc4c(F)c(-c5cc(O)cc6cccc(C7CC7)c56)c(F)cc34)C1)N2 [Ex. 159, 5-cyclopropyl-4-(6,8-difluoro-2-(((2R)-2-fluorotetrahydro-1H-pyrrolizin-7a(5H)-yl)-methoxy)-4-((1S,5R)-1-methyl-3,8-diaza-bicyclo[3.2.1]octan-3-yl)quinazolin-7-yl)-naphthalen-2-ol] | 4.28 nM | 139 nM |
|  | C[C@]12CCC(CN(c3nc(OC[C@@]45CCCN4C[C@H](F)C5)nc4c(F)c(-c5cc(O)cc6cccc(Cl)c56)c(F)c(F)c34)C1)N2 [Ex. 172, 5-chloro-4-(5,6,8-trifluoro-2-(((2R,7aS)-2-fluorotetrahydro-1H-pyrrolizin-7a(5H)-yl)-methoxy)-4-((1S,5R)-1-methyl-3,8-diaza-bicyclo[3.2.1]octan-3-yl)quinazolin-7-yl)-naphthalen-2-ol, 2TFA] | 17.1 nM | 3500 nM |
|  | CN1CCC[C@H]1COc1nc(N2C[C@H]3CC[C@@](C)(C2)N3)c2cc(F)c(-c3cc(O)cc4cccc(Cl)c34)c(F)c2n1 [Ex. 185, 5-chloro-4-(6,8-difluoro-4-((1S,5R)-1-methyl-3,8-diaza-bicyclo-[3.2.1]octan-3-yl)-2-(((S)-1-methyl-pyrrolidin-2-yl)meth-oxy)quinazolin-7-yl)-naphthalen-2-ol] | 732 nM | 7040 nM |

| Structure (SMILES) | IC50 [1, 3] | IC50 [2] | IC50 [1, 4] |
| --- | --- | --- | --- |
| C#Cc1cccc2c(F)c(O)cc(-c3c(F)cc4c(N5C[C@H]6CC[C@@](C)(C5)N6)nc(OC[C@@]56CCCN5C[C@H](F)C6)nc4c3F)c12 [202a, 4-(6,8-difluoro-2-(((2R,7aS)-2-fluorotetrahydro-1H-pyrrolizin-7a(5H)-yl)methoxy)-4-((1.5R)-1-methyl-3,8-diazabicyclo[3.2.1]octan-3-yl)quinazolin-7-yl)-5-ethynyl-1-fluoronaphthalen-2-ol] | 11500 nM | 302 nM |  |
